Measured values: PubChem BioAssay AID330 (DTP/NCI, 2004)
“And” between values parts separate entries of the source, which are not always exact repeats. Equal entries are not always repeated. Toxic doses and inconclusive results are not listed. The calls were made as follows: active = survival T/C of 150% or more; inactive = T/C below 125% in these data.

Test system: P388 leukemia ip, CD2F1 mice, survival T/C
Test: NCI In Vivo Anticancer Drug Screen. Data for tumor model P388 Leukemia (intraperitoneal) in CD2F1 (CDF1) mice
Details: endpoint: median survival time, higher = longer survival
How it was run: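 Mice carrying the transplanted tumor received test compound or vehicle. Survival was recorded in each group, and the value is the treated-group measurement divided by that of the vehicle-treated control group.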

[1] = dose: 100.0 mg/kg/injection, schedule: Q01DX009 (ip), vehicle: saline with Tween-80
[2] = dose: 200.0 mg/kg/injection, schedule: Q01DX009 (ip), vehicle: saline with Tween-80
[3] = dose: 50.0 mg/kg/injection, schedule: Q01DX009 (ip), vehicle: Klucel (hydroxypropylcellulose) (HPC)
[4] = dose: 100.0 mg/kg/injection, schedule: Q01DX009 (ip), vehicle: Klucel (hydroxypropylcellulose) (HPC)
[5] = dose: 200.0 mg/kg/injection, schedule: Q01DX009 (ip), vehicle: Klucel (hydroxypropylcellulose) (HPC)
[6] = dose: 12.5 mg/kg/injection, schedule: Q01DX009 (ip), vehicle: distilled water + Tween-80
[7] = dose: 25.0 mg/kg/injection, schedule: Q01DX009 (ip), vehicle: distilled water + Tween-80
[8] = dose: 50.0 mg/kg/injection, schedule: Q01DX009 (ip), vehicle: distilled water + Tween-80
[9] = dose: 100.0 mg/kg/injection, schedule: Q01DX009 (ip), vehicle: distilled water + Tween-80
[10] = dose: 12.5 mg/kg/injection, schedule: Q01DX009 (ip), vehicle: saline with Tween-80
[11] = dose: 25.0 mg/kg/injection, schedule: Q01DX009 (ip), vehicle: saline with Tween-80
[12] = dose: 50.0 mg/kg/injection, schedule: Q01DX009 (ip), vehicle: saline with Tween-80

Measured: T/C

Ic1ncnc2c1ncn2C1CCCCO1 (centres undefined)
inactive: [1] 95 % of control | dose: 100.0 mg/kg/injection, schedule: Q01DX009 (ip), vehicle: saline 95 % of control | dose: 100.0 mg/kg/injection, schedule: Q04DX003 (ip), vehicle: saline with Tween-80 100 % of control | [2] 100 % of control | dose: 200.0 mg/kg/injection, schedule: Q01DX009 (ip), vehicle: saline 104 % of control | dose: 200.0 mg/kg/injection, schedule: Q04DX003 (ip), vehicle: saline with Tween-80 91 % of control | dose: 400.0 mg/kg/injection, schedule: Q01DX009 (ip), vehicle: saline with Tween-80 90 % of control | dose: 400.0 mg/kg/injection, schedule: Q04DX003 (ip), vehicle: saline with Tween-80 95 % of control

CC(=O)c1ccc2c3c(cccc13)C(=O)OC2=O
inactive: dose: 25.0 mg/kg/injection, schedule: Q01DX005 (ip), vehicle: Klucel (hydroxypropylcellulose) (HPC) 100 % of control | dose: 50.0 mg/kg/injection, schedule: Q01DX005 (ip), vehicle: Klucel (hydroxypropylcellulose) (HPC) 100 % of control and 101 % of control | dose: 100.0 mg/kg/injection, schedule: Q01DX005 (ip), vehicle: Klucel (hydroxypropylcellulose) (HPC) 102 % of control and 97 % of control | dose: 200.0 mg/kg/injection, schedule: Q01DX005 (ip), vehicle: Klucel (hydroxypropylcellulose) (HPC) 104 % of control

CCOC(=O)N1CCc2[nH]oc(=O)c2CC1
inactive: dose: 6.25 mg/kg/injection, schedule: Q01DX009 (ip), vehicle: saline 101 % of control and 107 % of control | dose: 12.5 mg/kg/injection, schedule: Q01DX009 (ip), vehicle: saline 110 % of control and 95 % of control | dose: 25.0 mg/kg/injection, schedule: Q01DX009 (ip), vehicle: saline 99 % of control

O=C(NC(=O)C(F)(F)C(F)(F)F)Nc1ccc(Cl)cc1
inactive: [3] 115 % of control | [4] 98 % of control | [5] 101 % of control

CCc1nc(N)nc(N)c1-c1ccc(N2CCCCC2)cc1
inactive: dose: 7.5 mg/kg/injection, schedule: Q01DX005 (ip), vehicle: saline with Tween-80 112 % of control | dose: 15.0 mg/kg/injection, schedule: Q01DX005 (ip), vehicle: saline with Tween-80 100 % of control | dose: 30.0 mg/kg/injection, schedule: Q01DX005 (ip), vehicle: saline with Tween-80 99 % of control

C[As](C)SCC1OC(n2ccc(=O)[nH]c2=O)C2OC(C)(C)OC12 (centres undefined)
inactive: [6] 103 % of control | [7] 110 % of control | [8] 116 % of control | [9] 113 % of control

COc1ccc(C2=NC(c3ccccc3)N3C(c4ccccc4)NC(c4ccccc4)C2C3c2ccccc2)cc1 (centres undefined)
inactive: [10] 100 % of control | [11] 90 % of control | [12] 90 % of control and 93 % of control | [2] 91 % of control

NC(CCCOS(=O)(=O)O)Cc1ccc2ccccc2c1 (centres undefined)
inactive: dose: 100.0 mg/kg/injection, schedule: Q04DX003 (ip), vehicle: Klucel (hydroxypropylcellulose) (HPC) 100 % of control | dose: 200.0 mg/kg/injection, schedule: Q04DX003 (ip), vehicle: Klucel (hydroxypropylcellulose) (HPC) 100 % of control | dose: 400.0 mg/kg/injection, schedule: Q04DX003 (ip), vehicle: Klucel (hydroxypropylcellulose) (HPC) 94 % of control

C[C@H]1C(=O)CCC2[C@]3(C)CC4OC(=O)C5(CC[C@@]6(C)CCC(C)(C)CC6C45C)C3CC[C@@]21C (some centres undefined)
inactive: dose: 8.25 mg/kg/injection, schedule: Q01DX005 (ip), vehicle: Klucel (hydroxypropylcellulose) (HPC) 93 % of control

O=C1N[C@@H]([C@H]2CC[C@H](Cl)CN2)C(=O)N[C@H]1[C@H]1CC[C@H](Cl)CN1
122 % of control and 223 % of control: dose: 1.56 mg/kg/injection, schedule: Q01DX009 (ip), vehicle: water
inactive: dose: 0.25 mg/kg/injection, schedule: Q01DX005 (iv), vehicle: saline 118 % of control | dose: 0.5 mg/kg/injection, schedule: Q01DX005 (iv), vehicle: saline 118 % of control | dose: 1.0 mg/kg/injection, schedule: Q01DX001 (ip), vehicle: saline 123 % of control | dose: 1.0 mg/kg/injection, schedule: Q01DX005 (iv), vehicle: saline 120 % of control | dose: 2.0 mg/kg/injection, schedule: Q01DX001 (ip), vehicle: saline 123 % of control | dose: 4.0 mg/kg/injection, schedule: Q01DX005 (ip), vehicle: saline 100 % of control
active: dose: 0.39 mg/kg/injection, schedule: Q01DX009 (ip), vehicle: water 158 % of control and 182 % of control | dose: 0.78 mg/kg/injection, schedule: Q01DX009 (ip), vehicle: water 184 % of control and 214 % of control | dose: 1.0 mg/kg/injection, schedule: Q01DX005 (ip), vehicle: saline 181 % of control | dose: 2.0 mg/kg/injection, schedule: Q01DX005 (ip), vehicle: saline 227 % of control | dose: 2.0 mg/kg/injection, schedule: Q01DX005 (iv), vehicle: saline 157 % of control | dose: 2.0 mg/kg/injection, schedule: Q01DX005 (oral), vehicle: saline 180 % of control | dose: 4.0 mg/kg/injection, schedule: Q01DX001 (ip), vehicle: saline 151 % of control | dose: 4.0 mg/kg/injection, schedule: Q01DX005 (iv), vehicle: saline 200 % of control | dose: 4.4 mg/kg/injection, schedule: Q01DX001 (ip), vehicle: saline 172 % of control and 176 % of control and 177 % of control | dose: 6.7 mg/kg/injection, schedule: Q01DX001 (ip), vehicle: saline 172 % of control and 190 % of control and 211 % of control | dose: 10.0 mg/kg/injection, schedule: Q01DX001 (ip), vehicle: saline 216 % of control and 220 % of control and 250 % of control | dose: 16.0 mg/kg/injection, schedule: Q01DX001 (ip), vehicle: saline 209 % of control

CCOC(=O)C(Cc1ccccc1)NO (centres undefined)
inactive: dose: 6.25 mg/kg/injection, schedule: Q01DX009 (ip), vehicle: saline with Tween-80 98 % of control | [10] 100 % of control

COc1cc(-c2c(C#N)c(OC)[nH]c(=O)c2C#N)cc(OC)c1OC
inactive: [10] 105 % of control | [11] 102 % of control | [12] 102 % of control and 105 % of control | [1] 96 % of control | [2] 95 % of control

N#Cc1ccccc1NCc1ccccc1
inactive: [6] 103 % of control | [7] 102 % of control | [8] 100 % of control and 97 % of control | [9] 100 % of control and 103 % of control and 92 % of control | dose: 200.0 mg/kg/injection, schedule: Q01DX009 (ip), vehicle: distilled water + Tween-80 94 % of control and 95 % of control (2×) | dose: 400.0 mg/kg/injection, schedule: Q01DX009 (ip), vehicle: distilled water + Tween-80 99 % of control and 93 % of control | dose: 600.0 mg/kg/injection, schedule: Q01DX009 (ip), vehicle: distilled water + Tween-80 99 % of control

CC12CCC3(CC(=O)C1CCC2O)OCCO3 (centres undefined)
inactive: [3] 107 % of control | [4] 103 % of control | [5] 116 % of control
